In this test the target is T1, fascin1 (Homo sapiens, UniProt Q16658).
T1 construct: gene FSCN1; commercial purified fascin1 (Hypermol)
The experiment in a line: F-actin bundling, low-speed cosedimentation. As to conditions: 1 µM fascin1; 10 µM F-actin. The class given is biochemical.

For `CN(C)CCCN1c2ccccc2CCc2ccccc21` [imipramine], the “F-actin bundling, low-speed cosedimentation” value is listed as “upon imipramine addition, the F-actin pellet fraction significantly diminished in favor of the supernatant”.

(Values after publication PMC7062870 (Experimental & Molecular Medicine, 2020).)
